Laboratory results as given in patent US20210369681A1, “Identification of PPM1D mutations as a novel biomarker for NAMPTi sensitivity” (YALE UNIVERSITY, priority 2018, published 2021).

Tests used:
[1] = tested on: NAPRT expression in PPM1Dtrnc. cells; test: NAPRT immunoblot after DNA demethylating agents; format: cell-based, human; conditions: varying doses, 72 hrs
Experimental: PPM1D^trnc. astrocytes were treated with 50 µg/mL cycloheximide or 1 μM MG132 (both Sigma) for the indicated amount of time. Cells were then washed, pelleted, and lyzed for subsequent immunoblotting approaches, as described above. Quantification of immunoblot intensity was calculated using ImageJ software, and consisted of multiple (n=3) blots. Irradiation of cells was performed using an X-RAD KV irradiator (Precision X-ray), and treatment consisted of an unfractionated, 10 Gy dose. PPM1D inhibitor treatment with GSK2830371 (Selleckchem), consisted of 50 nM treatment, 24 hours prior to IR. FK866 (Selleckchem), GPP78 (Tocris Bioscience), STF118804 (Tocris Bioscience), STF31 (Tocris Bioscience), 5-azacytidine (Selleckchem), and Decitabine (Selleckchem) were dissolved in DMSO and used for treatment as indicated.

[2] = tested on: PPM1Dtrnc. astrocyte xenografts; test: PPM1Dtrnc. astrocyte cell line xenografts; format: in vivo, NOD scid gamma (NSG) mice; conditions: 20 mg/kg BID i.p.
Experimental: (§1) Astrocyte xenograft studies were performed in NOD scid gamma (NSG, NOD.Cg-Prkdc^scidIl2rg^tm1Wj1/SzJ female mice 3-4 weeks old) mice. For cell line xenografts, 5×10^6 WT or PPM1D^trnc. astrocytes, stably expressing firefly luciferase (lentivirus-plasmids from Cellomics Technology; PLV-10003), were combined with Matrigel (Corning, 47743-722) in a total volume of 0.2 mL. Cell-Matrigel suspension was injected subcutaneously into both the right and left flanks of shaved NSG mice. Mice were randomly sorted into treatment groups, and tumor burden and growth were measured on a weekly basis, via BLI intensity, as described below. FK866 was solubilized in DMSO at a concentration of 80 mg/ml. Mice were then administered the drug intraperitoneally twice a day for 4 days, repeated weekly for 3 weeks at 20 mg/kg in 10% cyclodextrin. Treatment began after one month of growth. Tumors were harvested after completion of treatment, and mass for each tumor was measured. Serially transplanted xenografts were created via continuous transplantation of PPM1D^trnc. cell line xenografts in NSG mice. […] Mice were sorted randomly into treatment groups, and tumor volume was measured using standard caliper-based techniques. Tumor volume was calculated as length×width^2×0.52. […] Mice were sorted randomly into treatment groups, and tumor burden was assessed through caliper measurement and volume calculations. […]

[3] = tested on: NAD and NADP levels in WT and PPM1Dtrnc. astrocytes; test: NAD / NADP quantification in astrocytes; format: cell-based, human; conditions: 10 nM FK866, 24 hrs
Experimental: The NAD metabolome was quantitatively analyzed using LC-MS/MS, using two separations on Hypercarb and 13C metabolite standards. Subsequent NAD level analyses were performed using a NAD/NADH Quantification kit (Sigma), as per the manufacturer's specifications. Me/hME-DIP, Bisulfite Conversion, and Global 5-hmC Detection Genomic DNA was purified using the Wizard Genomic DNA purification kit (Promega), and subsequently immunoprecipitated or bisulfite-converted. […] Immunoprecipitated DNA was extracted with phenol/chloroform and analyzed using quantitative PCR (qPCR), as described below. Bisulfite conversion was performed via EpiMark Bisulfite Conversion kit (NEB). Modified DNA was then amplified using EpiMark Hot Start Taq DNA polymerase (NEB), with primers listed in Table 1, and purified with a PCR purification kit (Qiagen). Methylation was then assessed through Sanger-sequencing of the NAPRT promoter. Global 5-hydroxymethylcytosine levels were assessed via the Global 5-hmC quantification kit (Active Motif), according to manufacturer's protocols. Quantitative PCR (qPCR) mRNA transcripts were purified from cells using a RNAeasy kit (Qiagen) and subsequently reverse transcribed using a High Capacity cDNA reverse transcription kit (Applied Biosystems). PPM1D and NAPRT gene expression levels were assessed through qPCR with TaqMan fluorescent probes (all from Applied Biosystems): PPM1D (4331182), NAPRT (4351372), and Actin (4333762F), according to manufacturer's protocol. Expression level fold change was calculated via ΔΔCt comparison, using Actin as a reference gene. The NAPRT promoter region was quantitated via qPCR using Fast Start Universal SYBR Green Master with ROX (Roche), and primers listed in Table 1. All qPCR reactions were run on a StepOnePlus Real Time PCR system (Applied Biosystems).

MCF7 = MCF7 cell viability; format: cell-based, human; conditions: 96 hr treatment
Experimental: (§2) hTert/E6/E7 immortalized human astrocytes were acquired from the lab of Dr. Timothy Chan, and have been previously characterized. Unless noted otherwise, astrocytes were grown in DMEM, high glucose (ThermoFisher Scientific/Gibco) plus 10% FBS (Gibco) as adherent monolayers. U2OS cells were purchased from ATCC, and were grown in DMEM, high glucose plus 10% FBS. MCF7 cells were grown in RPMI1640 (ThermoFisher Scientific/Gibco) with the addition of 10% FBS.

U2OS = U2OS cell viability; format: cell-based, human; conditions: 96 hr treatment
Experimental: as §2

[4] = tested on: serially-transplanted PPM1D mutant astrocyte xenografts; test: Serially-transplanted PPM1D mutant astrocyte xenografts; format: in vivo, NSG mice; conditions: 20 mg/kg BID
Experimental: as §1

[5] = tested on: parental and PPM1Dtrnc. immortalized human astrocytes; format: cell-based
Experimental: In vitro cellular viability assessments of immortalized human astrocytes, MCF7, and U2OS cell lines were made using a previously described, high-content, microscopy platform developed by our group. In brief, cells were plated in a 96-well plate at a density of 2000 cells/well, and incubated overnight. Drug treatment or vehicle (0.5% DMSO) control was administered, and cells were incubated for 72-96 hours as indicated. Plates were then washed with PBS and fixed with ice-cold 70% ethanol for 2 hours at 4° C. […] Cells were imaged using a Cytation3 imager (BioTek), and images were stitched and analyzed as described above. Viability assessments were made comparing drug treated to vehicle treated conditions. SU-DIPG and HSJD-DIPG-007 spheroid viability was assessed using CytoTox-Glo (Promega), according to the manufacturer's protocols. Spheroids were treated with FK866 for 120 hours before analysis using this method. IC50 calculations were made using GraphPad Prism, by fitting data to an [inhibitor] vs response−variable slope four parameter nonlinear regression (as depicted in the representative figures). siRNA Transfection and Viability Analysis Individual NAPRT targeting siRNAs were ordered from Dharmacon Inc. (Horizon Discovery), with target sequences listed in Table 1. The panel of siRNAs used for synthetic lethal viability screening was hand-selected and ordered from Dharmacon Inc. and were provided in ON-TARGET plus mixtures, each containing up to four unique siRNAs per gene. 2×10^5 astrocytes were reverse-transfected with different siRNAs (200 nM final concentration), using Lipofectamine RNAiMAX (Invitrogen), according to manufacturer's protocols. For individual siRNAs, cells were incubated for 72 hours, pelleted, and lyzed for immunoblotting. For the siRNA screen, cells were incubated for 24 hours and split to different condition plates, where they were incubated for an additional 24 hours. Cells were then treated with the described doses of FK866, and viability was assessed after 72 hours of drug treatment, using the image-based pipeline described above. Viability measurements were made for each siRNA, and normalized to FK866-untreated conditions.
Given the role of PPM1D in DDR pathways, we performed a small molecule synthetic lethal screen with a panel of inhibitors against key DNA repair and metabolic proteins, using methodology described previously by our group.

SU-DIPG-XXXV = test: DIPG spheroid viability (CytoTox-Glo), PPM1D mutant line; format: cell-based, human; conditions: 120 hr treatment; spheroids
[6] = tested on: U2OS cell line xenografts; test: U2OS cell line xenografts; format: in vivo, athymic nude mice
[7] = tested on: SU-DIPG-IV, XIII, and XVII (WT DIPG lines); test: DIPG spheroid viability (CytoTox-Glo), SU-DIPG lines; format: cell-based, human

| SMILES | Reversal of NAPRT gene silencing [1] | Lower final tumor mass, fold change ([2]; 3 cycles, versus vehicle alone) | Reduction in tumor burden (BLI), fold change ([2]; 4 days weekly for 3 weeks, after three weeks, vs vehicle) | Decline of NAD and NADP compared with WT astrocytes ([3]; PPM1Dtrnc. cells) | Cellular pools of NAD and NADP ([3]; WT astrocytes) | Sensitivity to FK866 treatment (MCF7) | Sensitivity to FK866 treatment (U2OS) | Reduced overall tumor size, fold change ([4]; 3 cycles of four days on, three days off, calipers and BLI, vs vehicle) | Tumor growth delay (Kaplan-Meier) ([4]; 3 cycles, compared to a vehicle control) | IC50 ratio (Parental/PPM1Dtrnc.) [5] | Cytotoxic doses (SU-DIPG-XXXV) | Tumor volume, fold change ([6]; 20 mg/kg BID for 3 four day weekly cycles, vs vehicle) | Body mass difference between the treatment groups ([6]; all mice on study, throughout the dosing schedule (FIG. 13B)) | Sensitivity to FK866 in media devoid of nicotinic acid ([7]; all SU-DIPG spheroid cultures tested, growth media devoid of nicotinic acid (NA)) | Response to FK866 treatment ([7]; three WT DIPG lines, 120 hr, NA-containing media) |
| --- | --- | --- | --- | --- | --- | --- | --- | --- | --- | --- | --- | --- | --- | --- | --- |
| Nc1ncn([C@@H]2O[C@H](CO)[C@@H](O)[C@H]2O)c(=O)n1 [azacytidine] | failed to reverse | – | – | – | – | – | – | – | – | – | – | – | – | – | – |
| O=C(/C=C/c1cccnc1)NCCCCC1CCN(C(=O)c2ccccc2)CC1 [FK866] | – | 3.1 | 4.93 | significantly greater | dropped markedly | strong sensitivity | strong sensitivity | 17.1 | significantly delayed | 9746.59 | low, single-digit nanomolar range | 5.86 | no significant differences | strong sensitivity | resistant |
